Read-outs that look alike come from different tables or passages of the source.
How the values were obtained:
[1] = target: MKK1 (Homo sapiens, UniProt Q02750); assay: ICKP radiometric kinase assay; assay type: biochemical; settings: read-out: % AR (% kinase activity remaining)
[2] = target: JNK3 (Homo sapiens, UniProt P53779); assay: ICKP radiometric kinase assay; assay type: biochemical; settings: read-out: % AR (% kinase activity remaining)
[3] = target: p38 beta (Homo sapiens, UniProt Q15759); assay: ICKP radiometric kinase assay; assay type: biochemical; settings: read-out: % AR (% kinase activity remaining)
[4] = target: SGK1 (Homo sapiens, UniProt O00141); assay: ICKP radiometric kinase assay; assay type: biochemical; settings: read-out: % AR (% kinase activity remaining)
[5] = target: PKC alpha (Homo sapiens, UniProt P17252); assay: ICKP radiometric kinase assay; assay type: biochemical; settings: read-out: % AR (% kinase activity remaining)
[6] = target: MAPKAP-K2 (Homo sapiens, UniProt P49137); assay: ICKP radiometric kinase assay; assay type: biochemical; settings: read-out: % AR (% kinase activity remaining)
[7] = target: MAPKAP-K3 (Homo sapiens, UniProt Q16644); assay: ICKP radiometric kinase assay; assay type: biochemical; settings: read-out: % AR (% kinase activity remaining)
[8] = target: SmMLCK (Homo sapiens, UniProt Q15746); assay: ICKP radiometric kinase assay; assay type: biochemical; settings: for remaining activity at 1 µM: read-out: % AR (% kinase activity remaining)
[9] = target: CHK1 (Homo sapiens, UniProt O14757); assay: ICKP radiometric kinase assay; assay type: biochemical; settings: read-out: % AR (% kinase activity remaining)
[10] = target: GSK3 beta (Homo sapiens, UniProt P49841); assay: ICKP radiometric kinase assay; assay type: biochemical; settings: read-out: % AR (% kinase activity remaining)
[11] = target: Aurora A (Homo sapiens, UniProt O14965); assay: ICKP radiometric kinase assay; assay type: biochemical; settings: read-out: % AR (% kinase activity remaining)
[12] = target: TLK1 (Homo sapiens, UniProt Q9UKI8); assay: ICKP radiometric kinase assay; assay type: biochemical; settings: read-out: % AR (% kinase activity remaining)
[13] = target: LKB1 (Homo sapiens, UniProt Q15831); assay: ICKP radiometric kinase assay; assay type: biochemical; settings: read-out: % AR (% kinase activity remaining)
[14] = target: MARK2 (Homo sapiens, UniProt Q7KZI7); assay: ICKP radiometric kinase assay; assay type: biochemical; settings: read-out: % AR (% kinase activity remaining)
[15] = target: SIK3 (Homo sapiens, UniProt Q9Y2K2); assay: ICKP radiometric kinase assay; assay type: biochemical; settings: read-out: % AR (% kinase activity remaining)
[16] = target: TSSK1 (Homo sapiens, UniProt Q9BXA7); assay: ICKP radiometric kinase assay; assay type: biochemical; settings: read-out: % AR (% kinase activity remaining)
[17] = target: CK1 gamma 2 (Homo sapiens, UniProt P78368); assay: ICKP radiometric kinase assay; assay type: biochemical; settings: read-out: % AR (% kinase activity remaining)
[18] = target: CK2 (Homo sapiens, UniProt P68400); assay: ICKP radiometric kinase assay; assay type: biochemical; settings: read-out: % AR (% kinase activity remaining)
[19] = target: TTBK1 (Homo sapiens, UniProt Q5TCY1); assay: ICKP radiometric kinase assay; assay type: biochemical; settings: read-out: % AR (% kinase activity remaining)
[20] = target: NEK2a (Homo sapiens, UniProt P51955); assay: ICKP radiometric kinase assay; assay type: biochemical; settings: read-out: % AR (% kinase activity remaining)
[21] = target: IKK beta (Homo sapiens, UniProt O14920); assay: ICKP radiometric kinase assay; assay type: biochemical; settings: read-out: % AR (% kinase activity remaining)
[22] = target: PIM3 (Homo sapiens, UniProt Q86V86); assay: ICKP radiometric kinase assay; assay type: biochemical; settings: read-out: % AR (% kinase activity remaining)
[23] = target: MST4 (Homo sapiens, UniProt Q9P289); assay: ICKP radiometric kinase assay; assay type: biochemical; settings: read-out: % AR (% kinase activity remaining)
[24] = target: ASK1 (Homo sapiens, UniProt Q99683); assay: ICKP radiometric kinase assay; assay type: biochemical; settings: read-out: % AR (% kinase activity remaining)
[25] = target: TAK1 (Homo sapiens, UniProt O43318); assay: ICKP radiometric kinase assay; assay type: biochemical; settings: read-out: % AR (% kinase activity remaining)
[26] = target: IRAK1 (Homo sapiens, UniProt P51617); assay: ICKP radiometric kinase assay; assay type: biochemical; settings: read-out: % AR (% kinase activity remaining)
[27] = target: WNK1 (Homo sapiens, UniProt Q9H4A3); assay: ICKP radiometric kinase assay; assay type: biochemical; settings: read-out: % AR (% kinase activity remaining)
[28] = target: TGFBR1 (Homo sapiens, UniProt P36897); assay: ICKP radiometric kinase assay; assay type: biochemical; settings: read-out: % AR (% kinase activity remaining)
[29] = target: Src (Homo sapiens, UniProt P12931); assay: ICKP radiometric kinase assay; assay type: biochemical; settings: read-out: % AR (% kinase activity remaining)
[30] = target: JAK2 (Homo sapiens, UniProt O60674); assay: ICKP radiometric kinase assay; assay type: biochemical; settings: read-out: % AR (% kinase activity remaining)
[31] = target: ZAP70 (Homo sapiens, UniProt P43403); assay: ICKP radiometric kinase assay; assay type: biochemical; settings: read-out: % AR (% kinase activity remaining)
[32] = target: EPH-B3 (Homo sapiens, UniProt P54753); assay: ICKP radiometric kinase assay; assay type: biochemical; settings: read-out: % AR (% kinase activity remaining)
[33] = target: EPH-B4 (Homo sapiens, UniProt P54760); assay: ICKP radiometric kinase assay; assay type: biochemical; settings: read-out: % AR (% kinase activity remaining)
[34] = target: HER4 (Homo sapiens, UniProt Q15303); assay: ICKP radiometric kinase assay; assay type: biochemical; settings: read-out: % AR (% kinase activity remaining)
[35] = target: TrkA (Homo sapiens, UniProt P04629); assay: ICKP radiometric kinase assay; assay type: biochemical; settings: read-out: % AR (% kinase activity remaining)
[36] = target: DDR2 (Homo sapiens, UniProt Q16832); assay: ICKP radiometric kinase assay; assay type: biochemical; settings: read-out: % AR (% kinase activity remaining)
[37] = target: PINK (Tribolium castaneum, UniProt D6WMX4); assay: ICKP radiometric kinase assay; settings: read-out: % AR (% kinase activity remaining)
[38] = tested on: MDA-MB-468; assay: Cell proliferation assay (CellTiter-Glo); settings: Homo sapiens
[39] = tested on: BT-549; assay: Cell proliferation assay (CellTiter-Glo); settings: Homo sapiens
[40] = tested on: HCC70; assay: Cell proliferation assay (CellTiter-Glo); settings: Homo sapiens
[41] = tested on: ZR-75-1; assay: Cell proliferation assay (CellTiter-Glo); settings: Homo sapiens, ZR-75-1, 72 h, read-out: 3-day antiproliferative IC50
[42] = MDA-MB-468, 72 h, read-out: 3-day antiproliferative IC50
[43] = MDA-MB-468, 168 h, read-out: 7-day antiproliferative IC50
[44] = BT-549, 72 h, read-out: 3-day antiproliferative IC50
[45] = BT-549, 168 h, read-out: 7-day antiproliferative IC50
[46] = HCC70, 72 h, read-out: 3-day antiproliferative IC50
[47] = HCC70, 168 h, read-out: 7-day antiproliferative IC50

Sequence of TSSK1 (Q9BXA7 whole entry): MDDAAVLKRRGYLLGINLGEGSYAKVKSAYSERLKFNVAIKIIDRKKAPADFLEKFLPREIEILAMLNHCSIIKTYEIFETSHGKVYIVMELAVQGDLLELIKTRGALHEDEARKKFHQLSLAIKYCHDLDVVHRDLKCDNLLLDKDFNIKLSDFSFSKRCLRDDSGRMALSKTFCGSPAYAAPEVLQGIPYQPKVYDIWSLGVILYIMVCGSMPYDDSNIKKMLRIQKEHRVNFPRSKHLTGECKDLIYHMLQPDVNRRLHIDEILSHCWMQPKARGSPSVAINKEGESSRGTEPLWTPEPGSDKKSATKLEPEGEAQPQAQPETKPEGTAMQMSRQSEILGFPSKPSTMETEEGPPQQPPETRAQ
Sequence of MST4 (Q9P289 whole entry): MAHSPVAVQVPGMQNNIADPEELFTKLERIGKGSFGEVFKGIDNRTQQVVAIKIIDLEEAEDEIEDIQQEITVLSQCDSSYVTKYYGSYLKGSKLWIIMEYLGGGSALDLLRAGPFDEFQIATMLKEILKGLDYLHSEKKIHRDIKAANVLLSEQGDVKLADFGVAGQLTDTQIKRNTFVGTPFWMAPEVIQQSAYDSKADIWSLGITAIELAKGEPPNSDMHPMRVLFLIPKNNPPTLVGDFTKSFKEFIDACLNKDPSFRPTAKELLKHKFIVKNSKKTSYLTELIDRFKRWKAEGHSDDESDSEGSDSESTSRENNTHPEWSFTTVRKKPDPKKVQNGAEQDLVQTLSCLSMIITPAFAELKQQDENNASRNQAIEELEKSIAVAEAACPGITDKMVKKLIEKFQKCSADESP
Sequence of Aurora A (O14965 whole entry): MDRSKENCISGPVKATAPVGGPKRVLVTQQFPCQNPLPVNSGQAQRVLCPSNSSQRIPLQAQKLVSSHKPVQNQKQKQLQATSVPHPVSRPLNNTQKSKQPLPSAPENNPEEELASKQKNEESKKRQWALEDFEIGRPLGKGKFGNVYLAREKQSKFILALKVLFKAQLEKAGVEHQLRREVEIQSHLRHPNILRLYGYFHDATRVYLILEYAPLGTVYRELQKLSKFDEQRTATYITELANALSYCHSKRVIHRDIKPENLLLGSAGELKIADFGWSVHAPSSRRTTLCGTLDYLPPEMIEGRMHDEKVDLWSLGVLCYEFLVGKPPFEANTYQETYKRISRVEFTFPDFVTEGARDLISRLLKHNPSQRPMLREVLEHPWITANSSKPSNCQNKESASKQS
Sequence of CHK1 (O14757 whole entry): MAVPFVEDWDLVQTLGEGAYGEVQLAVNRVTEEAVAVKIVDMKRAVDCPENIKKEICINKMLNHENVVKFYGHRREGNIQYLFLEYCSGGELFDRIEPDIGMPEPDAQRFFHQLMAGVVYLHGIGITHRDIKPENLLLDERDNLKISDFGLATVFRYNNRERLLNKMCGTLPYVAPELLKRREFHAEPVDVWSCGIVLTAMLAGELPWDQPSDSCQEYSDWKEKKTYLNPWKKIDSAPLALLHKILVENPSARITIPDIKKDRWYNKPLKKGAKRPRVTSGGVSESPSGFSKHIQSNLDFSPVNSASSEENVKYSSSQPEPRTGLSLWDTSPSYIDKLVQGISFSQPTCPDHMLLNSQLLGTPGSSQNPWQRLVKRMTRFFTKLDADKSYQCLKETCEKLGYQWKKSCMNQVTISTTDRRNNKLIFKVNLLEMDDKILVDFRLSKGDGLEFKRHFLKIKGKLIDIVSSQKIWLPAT
Sequence of LKB1 (Q15831 whole entry): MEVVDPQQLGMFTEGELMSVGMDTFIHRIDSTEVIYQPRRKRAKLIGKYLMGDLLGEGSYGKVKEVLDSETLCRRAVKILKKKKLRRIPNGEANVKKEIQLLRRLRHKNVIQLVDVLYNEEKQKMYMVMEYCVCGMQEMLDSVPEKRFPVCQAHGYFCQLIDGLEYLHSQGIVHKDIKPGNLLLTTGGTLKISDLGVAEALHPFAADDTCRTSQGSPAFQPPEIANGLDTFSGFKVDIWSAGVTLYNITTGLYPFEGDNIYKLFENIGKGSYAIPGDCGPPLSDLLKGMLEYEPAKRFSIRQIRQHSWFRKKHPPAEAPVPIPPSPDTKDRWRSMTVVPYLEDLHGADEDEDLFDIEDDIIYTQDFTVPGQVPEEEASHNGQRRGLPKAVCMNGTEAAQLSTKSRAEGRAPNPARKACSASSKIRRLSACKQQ
Sequence of LKB1 (Q7RTN6 whole entry partner): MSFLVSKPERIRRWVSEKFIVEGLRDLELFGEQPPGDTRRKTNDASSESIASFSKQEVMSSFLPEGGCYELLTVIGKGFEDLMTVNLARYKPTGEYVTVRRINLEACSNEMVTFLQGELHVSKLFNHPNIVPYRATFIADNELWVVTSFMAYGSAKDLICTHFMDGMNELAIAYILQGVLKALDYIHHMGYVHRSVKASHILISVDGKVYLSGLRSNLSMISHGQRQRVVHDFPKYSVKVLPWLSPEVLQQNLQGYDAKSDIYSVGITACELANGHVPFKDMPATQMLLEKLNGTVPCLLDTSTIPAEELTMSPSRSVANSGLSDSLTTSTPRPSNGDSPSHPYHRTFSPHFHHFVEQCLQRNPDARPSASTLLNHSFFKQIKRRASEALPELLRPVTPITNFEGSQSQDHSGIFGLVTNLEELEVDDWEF
Sequence of LKB1 (Q9Y376 whole entry partner): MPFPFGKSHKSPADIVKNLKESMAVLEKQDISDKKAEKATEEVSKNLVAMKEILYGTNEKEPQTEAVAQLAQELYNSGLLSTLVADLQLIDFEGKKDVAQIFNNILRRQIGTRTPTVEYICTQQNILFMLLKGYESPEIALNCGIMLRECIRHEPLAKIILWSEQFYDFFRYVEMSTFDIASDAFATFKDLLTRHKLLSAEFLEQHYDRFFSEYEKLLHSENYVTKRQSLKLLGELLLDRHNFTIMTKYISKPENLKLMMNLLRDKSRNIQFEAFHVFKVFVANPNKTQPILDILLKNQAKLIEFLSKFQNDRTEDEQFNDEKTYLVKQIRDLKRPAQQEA
Sequence of TLK1 (Q9UKI8 whole entry): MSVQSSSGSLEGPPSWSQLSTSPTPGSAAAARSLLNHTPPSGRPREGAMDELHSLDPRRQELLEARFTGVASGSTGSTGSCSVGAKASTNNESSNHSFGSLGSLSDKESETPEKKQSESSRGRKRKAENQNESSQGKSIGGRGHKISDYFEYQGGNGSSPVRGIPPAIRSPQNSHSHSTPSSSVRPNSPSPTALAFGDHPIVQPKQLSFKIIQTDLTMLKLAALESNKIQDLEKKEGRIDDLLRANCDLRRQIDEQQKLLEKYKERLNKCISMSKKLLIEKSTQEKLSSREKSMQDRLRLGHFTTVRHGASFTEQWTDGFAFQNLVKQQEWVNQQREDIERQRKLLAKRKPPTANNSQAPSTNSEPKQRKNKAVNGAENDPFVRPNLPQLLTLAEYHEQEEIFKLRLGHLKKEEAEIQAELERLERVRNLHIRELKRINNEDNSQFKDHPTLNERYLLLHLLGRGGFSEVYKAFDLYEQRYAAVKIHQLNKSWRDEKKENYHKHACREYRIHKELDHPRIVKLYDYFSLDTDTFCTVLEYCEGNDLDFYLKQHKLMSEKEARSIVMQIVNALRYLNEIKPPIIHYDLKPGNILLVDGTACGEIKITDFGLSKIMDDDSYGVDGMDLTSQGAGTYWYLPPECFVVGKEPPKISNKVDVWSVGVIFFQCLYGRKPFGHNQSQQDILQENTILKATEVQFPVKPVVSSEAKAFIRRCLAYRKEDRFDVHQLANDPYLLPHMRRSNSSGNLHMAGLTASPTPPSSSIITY
Sequence of CK1 gamma 2 (P78368 whole entry): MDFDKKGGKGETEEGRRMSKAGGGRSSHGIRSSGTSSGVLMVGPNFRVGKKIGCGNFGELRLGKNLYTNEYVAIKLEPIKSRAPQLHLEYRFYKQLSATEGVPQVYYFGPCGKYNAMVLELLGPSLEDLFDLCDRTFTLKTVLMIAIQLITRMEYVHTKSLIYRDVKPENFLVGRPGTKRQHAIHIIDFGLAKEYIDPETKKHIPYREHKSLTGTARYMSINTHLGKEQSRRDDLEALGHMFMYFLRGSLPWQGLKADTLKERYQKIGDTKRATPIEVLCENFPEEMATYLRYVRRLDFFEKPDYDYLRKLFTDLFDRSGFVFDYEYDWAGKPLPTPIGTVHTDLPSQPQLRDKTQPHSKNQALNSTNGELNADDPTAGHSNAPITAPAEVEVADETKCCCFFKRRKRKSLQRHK
Sequence of JNK3 (P53779 whole entry): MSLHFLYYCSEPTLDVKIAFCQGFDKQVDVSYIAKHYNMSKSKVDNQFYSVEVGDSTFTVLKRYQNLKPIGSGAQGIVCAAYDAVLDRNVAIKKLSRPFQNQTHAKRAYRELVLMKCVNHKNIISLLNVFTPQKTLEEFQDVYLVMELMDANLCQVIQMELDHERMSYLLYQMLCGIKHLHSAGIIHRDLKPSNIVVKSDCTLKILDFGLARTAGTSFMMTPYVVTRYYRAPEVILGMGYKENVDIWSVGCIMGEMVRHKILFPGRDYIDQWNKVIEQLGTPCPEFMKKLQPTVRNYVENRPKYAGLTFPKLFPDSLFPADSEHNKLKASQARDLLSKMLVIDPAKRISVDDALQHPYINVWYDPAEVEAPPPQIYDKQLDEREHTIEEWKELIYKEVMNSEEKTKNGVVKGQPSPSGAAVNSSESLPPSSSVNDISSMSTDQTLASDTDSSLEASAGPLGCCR

CN(C)C[C@H]1CC[C@H](N2C(=O)NCc3cnc4ccc(-c5cc(Cl)c(O)c(Cl)c5)cc4c32)CC1 [HTH-01-091, 9-(3,5-dichloro-4-hydroxyphenyl)-1-(trans-4-((dimethylamino)methyl)cyclohexyl)-3,4-dihydropyrimido[5,4 c]quinolin-2(1H)-one]
remaining activity at 1 µM [1]: 62%
remaining activity at 1 µM [2]: 101%
remaining activity at 1 µM [3]: 85%
remaining activity at 1 µM [4]: 72%
remaining activity at 1 µM [5]: 79%
remaining activity at 1 µM [6]: 98%
remaining activity at 1 µM [7]: 89%
IC50 ([8]; radioactive filter-binding assay provided by the ICKP, read-out: Enzymatic IC50 SmMLCK): 109 nM
remaining activity at 1 µM [8]: 8%
remaining activity at 1 µM [9]: 86%
remaining activity at 1 µM [10]: 86%
remaining activity at 1 µM [11]: 98%
remaining activity at 1 µM [12]: 95%
remaining activity at 1 µM [13]: 100%
remaining activity at 1 µM [14]: 94%
remaining activity at 1 µM [15]: 83%
remaining activity at 1 µM [16]: 68%
remaining activity at 1 µM [17]: 80%
remaining activity at 1 µM [18]: 23%
remaining activity at 1 µM [19]: 103%
remaining activity at 1 µM [20]: 100%
remaining activity at 1 µM [21]: 104%
remaining activity at 1 µM [22]: 1%
remaining activity at 1 µM [23]: 96%
remaining activity at 1 µM [24]: 90%
remaining activity at 1 µM [25]: 22%
remaining activity at 1 µM [26]: 86%
remaining activity at 1 µM [27]: 101%
remaining activity at 1 µM [28]: 102%
remaining activity at 1 µM [29]: 54%
remaining activity at 1 µM [30]: 39%
remaining activity at 1 µM [31]: 98%
remaining activity at 1 µM [32]: 99%
remaining activity at 1 µM [33]: 104%
remaining activity at 1 µM [34]: 84%
remaining activity at 1 µM [35]: 53%
remaining activity at 1 µM [36]: 44%
remaining activity at 1 µM [37]: 93%
IC50 [38, 42]: 4000 nM
IC50 [38, 43]: 2710 nM
IC50 [39, 44]: 6160 nM
IC50 [39, 45]: 2820 nM
IC50 [40, 46]: 8800 nM
IC50 [40, 47]: 2430 nM
IC50 [41]: > 10000 nM

CC(=O)c1cnc2ccc(-c3cc(Cl)c(O)c(Cl)c3)nc2c1N[C@H]1CC[C@H](CN(C)C)CC1 [OTSSP167]
remaining activity at 1 µM [1]: 3%
remaining activity at 1 µM [2]: 13%
remaining activity at 1 µM [3]: 6%
remaining activity at 1 µM [4]: 12%
remaining activity at 1 µM [5]: 7%
remaining activity at 1 µM [6]: 14%
remaining activity at 1 µM [7]: 94%
remaining activity at 1 µM [8]: 6%
remaining activity at 1 µM [9]: 11%
remaining activity at 1 µM [10]: 0%
remaining activity at 1 µM [11]: 10%
remaining activity at 1 µM [12]: 58%
remaining activity at 1 µM [13]: 83%
remaining activity at 1 µM [14]: 23%
remaining activity at 1 µM [15]: 4%
remaining activity at 1 µM [16]: 1%
remaining activity at 1 µM [17]: 10%
remaining activity at 1 µM [18]: 1%
remaining activity at 1 µM [19]: 82%
remaining activity at 1 µM [20]: 59%
remaining activity at 1 µM [21]: 41%
remaining activity at 1 µM [22]: 1%
remaining activity at 1 µM [23]: 5%
remaining activity at 1 µM [24]: 7%
remaining activity at 1 µM [25]: 1%
remaining activity at 1 µM [26]: 3%
remaining activity at 1 µM [27]: 111%
remaining activity at 1 µM [28]: 16%
remaining activity at 1 µM [29]: 5%
remaining activity at 1 µM [30]: 3%
remaining activity at 1 µM [31]: 78%
remaining activity at 1 µM [32]: 18%
remaining activity at 1 µM [33]: 2%
remaining activity at 1 µM [34]: 4%
remaining activity at 1 µM [35]: 1%
remaining activity at 1 µM [36]: 0%
remaining activity at 1 µM [37]: 89%
IC50 [38, 42]: 14 nM
IC50 [38, 43]: 12 nM
IC50 [39, 44]: 21 nM
IC50 [39, 45]: 9 nM
IC50 [40, 46]: 34 nM
IC50 [40, 47]: 21 nM
IC50 [41]: 55 nM
